Values joined by “and” are separate entries in the source; they are usually repeats but may differ in a detail not shown here. Equal values may be shown once. Where no end group is shown, it is not given here. [ ]: non-standard residue; d: D form. hArg = N=C(N)NCCCC[C@H](N)C(=O)O
Experiments:
human VPAC2 [1] = molecular target: T1, human VPAC2 (Homo sapiens, UniProt P41587); experiment: DiscoveRx cAMP in vitro potency, CHO-S cell line stably expressing human VPAC2 receptor; assay type: cell-based; conditions: cAMP generation; mean of two independent runs
T1 construct: expressed in transfected cells
T1 sequence (P41587 24-438): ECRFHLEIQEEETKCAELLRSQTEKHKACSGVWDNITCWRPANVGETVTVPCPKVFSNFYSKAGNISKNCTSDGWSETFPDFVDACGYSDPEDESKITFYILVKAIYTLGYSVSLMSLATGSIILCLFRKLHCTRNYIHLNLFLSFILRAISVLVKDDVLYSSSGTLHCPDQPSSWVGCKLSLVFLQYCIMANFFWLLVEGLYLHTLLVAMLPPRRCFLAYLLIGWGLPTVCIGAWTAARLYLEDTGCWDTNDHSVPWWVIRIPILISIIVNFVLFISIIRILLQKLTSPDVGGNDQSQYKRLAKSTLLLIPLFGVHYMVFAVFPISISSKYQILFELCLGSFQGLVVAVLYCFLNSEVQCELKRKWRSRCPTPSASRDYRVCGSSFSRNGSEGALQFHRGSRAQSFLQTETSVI
Method: (§1) Also, the cells are washed twice. The cells are incubated in assay buffer plus IBMX for 15 minutes at room temperature. […] The stimuli are present for 30 minutes. Then, the assay buffer is gently removed. […] At day 3, the assay described above for the VPAC2 receptor cell line is performed.

human VPAC1 [2] = molecular target: T2, human VPAC1 (Homo sapiens, UniProt P32241); experiment: DiscoveRx cAMP in vitro potency, CHO-PO cells transiently transfected with human VPAC1 receptor; assay type: cell-based; set-up: expressed in transfected cells; host or cells: CHO-PO, transient (Lipofectamine); conditions: cAMP generation; mean of two independent runs; read-out: Human VPAC1 Receptor: DiscoveRx EC50
T2 sequence (P32241 31-457): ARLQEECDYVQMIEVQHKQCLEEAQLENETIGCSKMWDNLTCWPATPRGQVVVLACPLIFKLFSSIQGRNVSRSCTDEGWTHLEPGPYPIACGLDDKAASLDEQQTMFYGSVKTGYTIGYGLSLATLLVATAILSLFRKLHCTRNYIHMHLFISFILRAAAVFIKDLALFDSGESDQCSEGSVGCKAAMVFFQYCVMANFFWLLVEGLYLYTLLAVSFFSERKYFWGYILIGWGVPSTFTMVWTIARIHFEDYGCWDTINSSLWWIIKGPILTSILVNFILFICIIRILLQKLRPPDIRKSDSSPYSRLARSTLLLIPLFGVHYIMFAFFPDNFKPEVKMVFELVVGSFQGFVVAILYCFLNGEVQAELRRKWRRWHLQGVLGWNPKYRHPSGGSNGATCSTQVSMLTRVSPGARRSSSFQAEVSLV
Method: as §1

DPP-IV = molecular target: T3, DPP-IV (Sus scrofa, UniProt P22411); experiment: DPP-IV HPLC assay: in vitro incubation with purified dipeptidyl-peptidase IV; assay type: in vitro ADME, Porcine
T3 construct: purchased Sigma
Method: Part 1: Formulation of Selective VPAC2 Receptor Peptide Agonists: […]
Approximately 2 mg of lyophilized peptide is weighed and dissolved in approximately 1.6 mL de-ionized water. […] After incubation at room temperature for 30 minutes, 1/10th of the original volume 10×PBS is added. The pH is adjusted to between pH 7.2 and 7.6. The peptide solution is filtered through a 0.22 μm Millex-GV syringe filter (Millipore, Bedford Mass., USA). The peptide concentration is determined through absorption at 280 nm. The peptide concentration is then adjusted to 100 μM. The peptides are frozen at −20° C. for further use.
Part 2: In Vitro Incubation of Selective VPAC2 Receptor Peptide Agonists with Purified Dipeptidyl-Peptidase IV (DPP-IV):
The stability of selective VPAC2 receptor peptide agonists against proteolysis by DPP-IV is determined using 100 μL of a 100 μM peptide solution in 1×PBS. A 10 μL solution is removed and quenched with 40 μL of 0.1% trifluoroacetic acid (TFA)/20% acetonitrile (ACN). This solution (20 μL) is analyzed by reversed-phase HPLC. The reversed-phase analysis consists of a Zorbax 300SB-C8 column (3.5 micron, 4.6×50 mm, Alltech Associates, Inc., Deerfield Ill., USA) running a 15-40% B gradient over 15 minutes at 60° C. where A-buffer is 0.1% (v/v) TFA in water and B-buffer is 0.085% (v/v) TFA in ACN. The peak area is integrated. This peak area serves as an internal control as 100% intact peptide.
A 10 μL aliquot of a 1.12 mU/μL solution of DPP-IV (Sigma, St. Louis, La., USA) is added to 90 μL of a 100 μM solution of peptide, resulting in a substrate concentration of 90 μM peptide. The reaction mixture is then stored at 37° C. At various time-points, 10 μL of solution is removed, quenched with 40 μL 0.1% TFA/20% ACN, and analyzed by reversed-phase HPLC as described above. The remaining full length peptide concentration (nM) at each timepoint, except time=0, is calculated using following formula: [formula]
For the time=0 timepoint, the concentration (nM) is calculated using the following formula: [formula]

human VPAC2 [3] = molecular target: T1, human VPAC2; experiment: Filter binding assay, membranes of stable VPAC2 cell line, 125I-labeled VIP tracer (Table 2); conditions: read-out: Human VPAC2 Receptor Binding
Procedure, shortened: (§2)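 Scintillation counting of filter-retained radioligand gave the read-out. Compounds competed with the labelled tracer (about 40000 cpm) for 2.5 μg membranes during 1 hour of shaking in HEPES pH 7.4 buffer containing 0.5% BSA.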

human VPAC1 [4] = molecular target: T2, human VPAC1; experiment: Filter binding assay, membranes of cells transiently transfected with human VPAC1, 125I-labeled VIP tracer (Table 2); set-up: expressed in transfected cells; conditions: read-out: Human VPAC1 Receptor Binding
Procedure, shortened: as §2

human PAC1 = molecular target: T4, human PAC1 (Homo sapiens, UniProt P41586); experiment: DiscoveRx cAMP in vitro potency, CHO-PO cells transiently transfected with human PAC1 receptor; assay type: cell-based; set-up: expressed in transfected cells; host or cells: CHO-PO, transient (Lipofectamine); conditions: cAMP generation; mean of two independent runs; read-out: Human PAC1 Receptor: DiscoveRx EC50
T4 sequence (P41586 21-468): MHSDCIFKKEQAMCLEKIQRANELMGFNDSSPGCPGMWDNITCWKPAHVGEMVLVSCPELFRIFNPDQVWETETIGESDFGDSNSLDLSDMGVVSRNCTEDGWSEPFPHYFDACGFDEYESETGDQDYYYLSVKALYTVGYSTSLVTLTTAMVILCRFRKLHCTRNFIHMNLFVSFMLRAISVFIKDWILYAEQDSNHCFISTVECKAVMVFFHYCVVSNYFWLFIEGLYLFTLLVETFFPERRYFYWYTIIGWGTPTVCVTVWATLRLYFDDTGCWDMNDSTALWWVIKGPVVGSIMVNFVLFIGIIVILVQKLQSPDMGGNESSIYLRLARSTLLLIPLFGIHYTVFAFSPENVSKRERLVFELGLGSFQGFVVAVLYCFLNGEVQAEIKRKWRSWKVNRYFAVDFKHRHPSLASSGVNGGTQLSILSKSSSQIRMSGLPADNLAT
Method: as §1

T3 sequence (P22411 whole entry): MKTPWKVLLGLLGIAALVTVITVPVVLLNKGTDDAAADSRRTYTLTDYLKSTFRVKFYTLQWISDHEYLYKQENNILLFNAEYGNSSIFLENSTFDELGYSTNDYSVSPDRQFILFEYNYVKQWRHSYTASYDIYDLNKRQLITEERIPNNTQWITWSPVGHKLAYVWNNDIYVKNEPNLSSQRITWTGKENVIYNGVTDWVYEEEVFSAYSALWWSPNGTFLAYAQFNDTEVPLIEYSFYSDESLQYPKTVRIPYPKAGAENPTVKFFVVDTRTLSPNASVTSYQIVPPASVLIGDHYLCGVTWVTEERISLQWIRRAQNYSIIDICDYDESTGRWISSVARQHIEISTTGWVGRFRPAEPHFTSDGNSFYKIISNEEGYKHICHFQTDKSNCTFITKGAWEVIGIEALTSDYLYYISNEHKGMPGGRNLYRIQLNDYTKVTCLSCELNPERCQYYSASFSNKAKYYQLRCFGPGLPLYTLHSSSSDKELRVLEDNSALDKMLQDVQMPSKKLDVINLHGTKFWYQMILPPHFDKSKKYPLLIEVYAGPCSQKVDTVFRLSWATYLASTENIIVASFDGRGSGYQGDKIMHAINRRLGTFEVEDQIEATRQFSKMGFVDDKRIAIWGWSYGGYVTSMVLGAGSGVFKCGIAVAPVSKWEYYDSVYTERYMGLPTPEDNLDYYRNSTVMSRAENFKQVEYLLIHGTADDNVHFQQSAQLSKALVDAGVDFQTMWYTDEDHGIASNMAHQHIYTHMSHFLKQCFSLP

HSDAVITDNYTRLRKQVAAKKYLQSIKNKRYGGPSSGAPPPS [Agonist P63]
EC50 (human VPAC2 [1]): > 1000 nM | EC50 (human VPAC1 [2]): > 1000 nM

VPAC2-P44 (HVDAVFTDNYTRLRKQVAAKKYLQSIKNKRYGGPSSGAPPPS; not fully specified (N-terminus))
Concentration (nM) of Remaining Main Peak by RP-HPLC after Incubation of Peptide with Purified Porcine DPP-IV (DPP-IV; Time = 0 hours at 37° C.): 9.0 nM | Concentration (nM) of Remaining Main Peak by RP-HPLC after Incubation of Peptide with Purified Porcine DPP-IV (DPP-IV; Time = 2 hours at 37° C.): 6.4 nM and 7.9 nM and 4.5 nM and 6.5 nM

H-HSDAVFTDNYTRAKAKVAAKKYLQSIKNKRYGGPSSGAPPPS [Agonist P94]
IC50 (human VPAC2 [3]): 71.5 nM | IC50 (human VPAC1 [4]): 271 nM | EC50 (human VPAC2 [1]): > 1000 nM

H-HSDAVFTDNYTRLRKQVAAKKYLQSI[hArg]NKRYGGPSSGAPPPS [Agonist P22]
IC50 (human VPAC2 [3]): 0.87 nM | IC50 (human VPAC1 [4]): 123 nM | EC50 (human VPAC1 [2]): 0.9 nM

H-HTDAVFTDNYTRLRKQVAAKKYLQSIKNKRYGGPSSGAPPPS [Agonist P45]
EC50 (human PAC1): 315 nM | EC50 (human VPAC2 [1]): 11.6 nM

HSDAVLTDNYTRLRKQVAAKKYLQSIKNKRYGGPSSGAPPPS [Agonist P64]
EC50 (human VPAC2 [1]): > 1000 nM | EC50 (human VPAC1 [2]): 221 nM

H-HSDAVFTDNYTRLRKQVAARKYLQSIKNKRYGGPSSGAPPPS [Agonist P20]
IC50 (human VPAC2 [3]): 2.5 nM | EC50 (human PAC1): > 25 nM | IC50 (human VPAC1 [4]): 98.7 nM | EC50 (human VPAC2 [1]): 2.13 nM

HSDATFTDNYTRLRKQVAAKKYLQSIKNKRYGGPSSGAPPPS [Agonist P62]
EC50 (human PAC1): 137 nM | EC50 (human VPAC2 [1]): 13.2 nM

H-HSDAVFTDNYTRFRKQVAAKKYLQSIKNKRYGGPSSGAPPPS [Agonist P26]
EC50 (human VPAC1 [2]): 0.9 nM

HSDAVFTDNYTRLRKQVAAKKYLQSIKNGRPSSGAPPPS [Agonist P92]
IC50 (human VPAC2 [3]): 0.86 nM | IC50 (human VPAC1 [4]): 74.6 nM | EC50 (human VPAC2 [1]): 8.2 nM

Ac-HSDAVFTDNYTRLRKQVAAKKYLQSIKNKRYGGPSSGAPPPS [Agonist P33]
IC50 (human VPAC2 [3]): 2.31 nM | EC50 (human PAC1): 111 nM | IC50 (human VPAC1 [4]): 120 nM | EC50 (human VPAC2 [1]): 0.86 nM

Source: patent US20080026996A1, “Selective Vpac2 Receptor Reptide Agonists” (ELI LILLY AND COMPANY, priority 2004, published 2008)
